Data from patent US3960877A, “N-monosubstituted-2,3-pyridinedicarboxamides, and related compounds” (priority 1974, dated 1976).

Experiments:
Type in all cases: in vivo
[1] = system: undesirable plants of both the monocotyledonous and the dicotyledonous species; test: Herbicidal activity, general; details: for herbicidal activity: 16 pounds per acre
Text: All of the 3-substituted compounds of the pyrido [3,2-d]pyrimidine-2,4(1H,3H)-dione and lumazine families made from intermediate amides produced by the method of this invention have an unexpectedly high order of herbicidal activity.
In using the compound, seeds of the types of plants set forth in Table II were sown in fresh soil. In the preemergence test the soil was sprayed with a solution of the test compound immediately after the seeds were planted, and before any noticeable growth developed. The solution was about a 2 percent by weight solution of the compound in acetone and/or alcohol. The compound was applied at the rate of 16 pounds per acre of soil surface.
Approximately 3 weeks after spray application, the herbicidal activity of the compound was determined by visual observation of the treated area in comparison with untreated control areas. These observations are reported below in Table II wherein the average activity rating is reported as the percent control of plant growth.
In the postemergence test the soil and developing plants were sprayed approximately 2 weeks after the seeds were sown. The compound was applied at the rate of 8 pounds per acre from about a 2 percent by weight solution of the test compound in acetone and/or alcohol. The postemergence herbicidal activity was measured in the same way as the preemergence activity; i.e. visual observation approximately 11 days after spraying, and expressed as the percent control of plant growth.

[2] = system: Alfalfa; test: Preemergence herbicidal activity, % control of plant growth; details: Medicago sativa, pre-emergence, 504 h, 16 lb/acre, about 3 weeks
Summary of the method: (§1)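 Around three weeks post-treatment, plots were inspected visually and compared with untreated soil to give average % control. Treatment was a pre-emergence spray of about 2 wt% compound in acetone and/or alcohol at 16 lb/acre on freshly seeded soil.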

[3] = system: Barnyard Grass; test: as above; details: Echinochloa crus-galli, pre-emergence, 504 h; barnyard grass; 16 lb/acre; about 3 weeks
Summary of the method: as §1

[4] = system: Cheatgrass; test: as above; details: Bromus tectorum, pre-emergence, 504 h, 16 lb/acre, about 3 weeks
Summary of the method: as §1

[5] = system: Chickweed; test: as above; details: pre-emergence, 504 h, 16 lb/acre, about 3 weeks
Summary of the method: as §1

[6] = system: Corn; test: as above; details: Zea mays, pre-emergence, 504 h, 16 lb/acre, about 3 weeks
Summary of the method: as §1

[7] = system: Crabgrass; test: as above; details: Digitaria sanguinalis, pre-emergence, 504 h, 16 lb/acre, about 3 weeks
Summary of the method: as §1

[8] = system: Cucumber; test: as above; details: Cucumis sativus, pre-emergence, 504 h, 16 lb/acre, about 3 weeks
Summary of the method: as §1

[9] = system: Curled Dock; test: as above; details: pre-emergence, 504 h, 16 lb/acre, about 3 weeks
Summary of the method: as §1

[10] = system: Foxtail; test: as above; details: Setaria, pre-emergence, 504 h, 16 lb/acre, about 3 weeks
Summary of the method: as §1

[11] = system: Johnsongrass; test: as above; details: Sorghum halepense, pre-emergence, 504 h, 16 lb/acre, about 3 weeks
Summary of the method: as §1

[12] = system: Lambsquarters; test: as above; details: Chenopodium album, pre-emergence, 504 h, 16 lb/acre, about 3 weeks
Summary of the method: as §1

[13] = system: Nutgrass; test: as above; details: pre-emergence, 504 h, 16 lb/acre, about 3 weeks
Summary of the method: as §1

[14] = system: Pigweed; test: as above; details: Amaranthus retroflexus, pre-emergence, 504 h, 16 lb/acre, about 3 weeks
Summary of the method: as §1

[15] = system: Snapbeans; test: as above; details: pre-emergence, 504 h, 16 lb/acre, about 3 weeks
Summary of the method: as §1

[16] = system: Velvetleaf; test: as above; details: Abutilon theophrasti, pre-emergence, 504 h, 16 lb/acre, about 3 weeks
Summary of the method: as §1

[17] = system: Wild Oats; test: as above; details: Avena fatua, pre-emergence, 504 h, 16 lb/acre, about 3 weeks
Summary of the method: as §1

[18] = system: Yellow Rocket; test: as above; details: pre-emergence, 504 h, 16 lb/acre, about 3 weeks
Summary of the method: as §1

[19] = system: Alfalfa; test: Postemergence herbicidal activity, % control of plant growth; details: Medicago sativa, post-emergence, 264 h, 8 lb/acre, about 11 days
Summary of the method: (§2)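 8 lb/acre, ~2% w/w in acetone and/or alcohol, sprayed on seedlings and soil ~2 wk after sowing. Readout: visual % control, ~11 d.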

[20] = system: Barnyard Grass; test: as above; details: Echinochloa crus-galli, post-emergence, 264 h, 8 lb/acre, about 11 days
Summary of the method: as §2

[21] = system: Cheatgrass; test: as above; details: Bromus tectorum, post-emergence, 264 h, 8 lb/acre, about 11 days
Summary of the method: as §2

[22] = system: Chickweed; test: as above; details: post-emergence, 264 h, 8 lb/acre, about 11 days
Summary of the method: as §2

[23] = system: Corn; test: as above; details: Zea mays, post-emergence, 264 h, 8 lb/acre, about 11 days
Summary of the method: as §2

[24] = system: Crabgrass; test: as above; details: Digitaria sanguinalis, post-emergence, 264 h, 8 lb/acre, about 11 days
Summary of the method: as §2

[25] = system: Cucumber; test: as above; details: Cucumis sativus, post-emergence, 264 h, 8 lb/acre, about 11 days
Summary of the method: as §2

[26] = system: Curled Dock; test: as above; details: post-emergence, 264 h, 8 lb/acre, about 11 days
Summary of the method: as §2

[27] = system: Foxtail; test: as above; details: Setaria, post-emergence, 264 h, 8 lb/acre, about 11 days
Summary of the method: as §2

[28] = system: Johnsongrass; test: as above; details: Sorghum halepense, post-emergence, 264 h, 8 lb/acre, about 11 days
Summary of the method: as §2

[29] = system: Lambsquarters; test: as above; details: Chenopodium album, post-emergence, 264 h, 8 lb/acre, about 11 days
Summary of the method: as §2

[30] = system: Nutgrass; test: as above; details: post-emergence, 264 h, 8 lb/acre, about 11 days
Summary of the method: as §2

[31] = system: Pigweed; test: as above; details: Amaranthus retroflexus, post-emergence, 264 h, 8 lb/acre, about 11 days
Summary of the method: as §2

[32] = system: Snapbeans; test: as above; details: post-emergence, 264 h, 8 lb/acre, about 11 days
Summary of the method: as §2

[33] = system: Velvetleaf; test: as above; details: Abutilon theophrasti, post-emergence, 264 h, 8 lb/acre, about 11 days
Summary of the method: as §2

[34] = system: Wild Oats; test: as above; details: Avena fatua, post-emergence, 264 h, 8 lb/acre, about 11 days
Summary of the method: as §2

[35] = system: Yellow Rocket; test: as above; details: post-emergence, 264 h, 8 lb/acre, about 11 days
Summary of the method: as §2

| Compound | herbicidal activity [1] | pest or weed control at 17933.6 g/ha [2] [%] | pest or weed control at 17933.6 g/ha [3] [%] | pest or weed control at 17933.6 g/ha [4] [%] | pest or weed control at 17933.6 g/ha [5] [%] | plant injury at 17933.6 g/ha [6] [%] | pest or weed control at 17933.6 g/ha [7] [%] | pest or weed control at 17933.6 g/ha [8] [%] | pest or weed control at 17933.6 g/ha [9] [%] | pest or weed control at 17933.6 g/ha [10] [%] | pest or weed control at 17933.6 g/ha [11] [%] | pest or weed control at 17933.6 g/ha [12] [%] | pest or weed control at 17933.6 g/ha [13] [%] | pest or weed control at 17933.6 g/ha [14] [%] | pest or weed control at 17933.6 g/ha [15] [%] | pest or weed control at 17933.6 g/ha [16] [%] | pest or weed control at 17933.6 g/ha [17] [%] | pest or weed control at 17933.6 g/ha [18] [%] | pest or weed control at 8966.8 g/ha [19] [%] | pest or weed control at 8966.8 g/ha [20] [%] | also measured |
| --- | --- | --- | --- | --- | --- | --- | --- | --- | --- | --- | --- | --- | --- | --- | --- | --- | --- | --- | --- | --- | --- |
| O=c1[nH]c2ncccc2c(=O)n1C1CCCCC1 [3-cyclohexyl-pyrido[2,3-d]pyrimidine-2,4-(1H,3H)-dione] | no appreciable herbicidal activity | – | – | – | – | – | – | – | – | – | – | – | – | – | – | – | – | – | – | – | – |
| CC(C)n1c(=O)[nH]c2ncccc2c1=O [3-isopropyl-pyrido[2,3-d]pyrimidine-2,4(1H,3H)-dione] | no appreciable herbicidal activity | – | – | – | – | – | – | – | – | – | – | – | – | – | – | – | – | – | – | – | order of herbicidal activity ([1]; in vivo): no appreciable activity |
| CC(C)n1c(=O)[nH]c2cnccc2c1=O [3-isopropyl-pyrido[3,4-d]pyrimidine-2,4(1H,3H)-dione] | no appreciable herbicidal activity | – | – | – | – | – | – | – | – | – | – | – | – | – | – | – | – | – | – | – | – |
| CC(C)n1c(=O)[nH]c2ccncc2c1=O [3-isopropyl-pyrido[4,3-d]pyrimidine-2,4(1H,3H)-dione] | no appreciable herbicidal activity | – | – | – | – | – | – | – | – | – | – | – | – | – | – | – | – | – | – | – | – |
| O=c1[nH]c2ncccc2c(=O)n1-c1ccccc1 [3-phenyl-pyrido[2,3-d]pyrimidine-2,4(1H,3H)-dione] | no appreciable herbicidal activity | – | – | – | – | – | – | – | – | – | – | – | – | – | – | – | – | – | – | – | – |
| O=c1[nH]c2nccnc2c(=O)n1C1CCCCC1 [Lumazine, 3-cyclohexyl] | – | 100 | 20 | 10 | 100 | 40 | 80 | 100 | 90 | 20 | 30 | 100 | 100 | 100 | 100 | 100 | 20 | 100 | 100 | 10 | pest or weed control at 8966.8 g/ha [21]: 50%; pest or weed control at 8966.8 g/ha [22]: 90%; plant injury at 8966.8 g/ha [23]: 10%; pest or weed control at 8966.8 g/ha [24]: 20%; pest or weed control at 8966.8 g/ha [25]: 100%; pest or weed control at 8966.8 g/ha [26]: 100%; pest or weed control at 8966.8 g/ha [27]: 10%; pest or weed control at 8966.8 g/ha [28]: 20%; pest or weed control at 8966.8 g/ha [29]: 100%; pest or weed control at 8966.8 g/ha [30]: 100%; pest or weed control at 8966.8 g/ha [31]: 90%; pest or weed control at 8966.8 g/ha [32]: 100%; pest or weed control at 8966.8 g/ha [33]: 100%; pest or weed control at 8966.8 g/ha [34]: 10%; pest or weed control at 8966.8 g/ha [35]: 100% |
| CCC(C)n1c(=O)[nH]c2nccnc2c1=O (stereo not drawn) [Lumazine, 3-sec-butyl] | – | 100 | 40 | 90 | 40 | 10 | 100 | 10 | 70 | 30 | 40 | 100 | 40 | 100 | 90 | 100 | 30 | 100 | 50 | 0 | pest or weed control at 8966.8 g/ha [21]: 0%; pest or weed control at 8966.8 g/ha [22]: 0%; plant injury at 8966.8 g/ha [23]: 0%; pest or weed control at 8966.8 g/ha [24]: 0%; pest or weed control at 8966.8 g/ha [25]: 60%; pest or weed control at 8966.8 g/ha [26]: 50%; pest or weed control at 8966.8 g/ha [27]: 0%; pest or weed control at 8966.8 g/ha [28]: 0%; pest or weed control at 8966.8 g/ha [29]: 100%; pest or weed control at 8966.8 g/ha [30]: 0%; pest or weed control at 8966.8 g/ha [31]: 20%; pest or weed control at 8966.8 g/ha [32]: 20%; pest or weed control at 8966.8 g/ha [33]: 90%; pest or weed control at 8966.8 g/ha [34]: 0%; pest or weed control at 8966.8 g/ha [35]: 100% |
| O=c1[nH]c(=O)c2ncccc2[nH]1 [pyrido[3,2-d]pyrimidine-2,4(1H,3H)-dione, reference compound] | – | 0 | 0 | 0 | 0 | 0 | 0 | 0 | 0 | 0 | 0 | 0 | 0 | 0 | 0 | 0 | 0 | 0 | 0 | 0 | pest or weed control at 8966.8 g/ha [21]: 0%; pest or weed control at 8966.8 g/ha [22]: 0%; plant injury at 8966.8 g/ha [23]: 0%; pest or weed control at 8966.8 g/ha [24]: 0%; pest or weed control at 8966.8 g/ha [25]: 0%; pest or weed control at 8966.8 g/ha [26]: 0%; pest or weed control at 8966.8 g/ha [27]: 0%; pest or weed control at 8966.8 g/ha [28]: 0%; pest or weed control at 8966.8 g/ha [29]: 0%; pest or weed control at 8966.8 g/ha [30]: 0%; pest or weed control at 8966.8 g/ha [31]: 0%; pest or weed control at 8966.8 g/ha [32]: 0%; pest or weed control at 8966.8 g/ha [33]: 0%; pest or weed control at 8966.8 g/ha [34]: 0%; pest or weed control at 8966.8 g/ha [35]: 0% |
